Measured values published in patent publication US12649750B2, “Macrocyclic compounds, compositions, and methods of using thereof” (Sionna Therapeutics Inc., priority 2022, dated 2026).

Tests used:
[1] = molecular target: T1, NBD1 (Homo sapiens, UniProt P13569); test: Aggregation analysis using differential static light scattering (DSLS), thermal stability of NBD1 (ΔTagg); assay type: binding; settings: ΔTagg versus DMSO control, NBD1 0.2 mg/ml
T1 construct: Purified recombinant NBD1 was produced using previously described methods; made in house
T1 sequence (P13569 423-646 limits assumed): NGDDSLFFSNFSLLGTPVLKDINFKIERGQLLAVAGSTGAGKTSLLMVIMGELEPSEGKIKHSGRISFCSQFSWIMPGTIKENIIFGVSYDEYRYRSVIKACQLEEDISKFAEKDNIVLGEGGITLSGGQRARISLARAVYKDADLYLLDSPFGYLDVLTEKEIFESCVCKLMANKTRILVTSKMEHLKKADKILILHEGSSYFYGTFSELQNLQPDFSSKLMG
Summary of the method: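 Thermal aggregation of purified NBD1 was followed by static light scattering during a 1° C./min ramp to 70° C. Protein was at 0.2 mg/ml with 2 mM ATP at pH7.6. Each compound's Tagg was referenced to DMSO controls.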

[2] = molecular target: T2, CFTR (Homo sapiens, UniProt P13569, DEL508-508); test: TECC24 AUC fold over DMSO @10 μM, CFTR-mediated transepithelial chloride transport in CF-HBE cells; assay type: cell-based; settings: test agent AUC divided by DMSO vehicle AUC, primary CF-HBE cells, ΔF508 homozygous donor, 48 hours incubation
T2 construct: Primary human bronchial epithelial cells from a ΔF508 homozygous CF donor; host or cells: primary human bronchial epithelial cells (CF-HBE), ΔF508 homozygous donor
T2 sequence (P13569 with tags, fused parts or gaps DEL508-508): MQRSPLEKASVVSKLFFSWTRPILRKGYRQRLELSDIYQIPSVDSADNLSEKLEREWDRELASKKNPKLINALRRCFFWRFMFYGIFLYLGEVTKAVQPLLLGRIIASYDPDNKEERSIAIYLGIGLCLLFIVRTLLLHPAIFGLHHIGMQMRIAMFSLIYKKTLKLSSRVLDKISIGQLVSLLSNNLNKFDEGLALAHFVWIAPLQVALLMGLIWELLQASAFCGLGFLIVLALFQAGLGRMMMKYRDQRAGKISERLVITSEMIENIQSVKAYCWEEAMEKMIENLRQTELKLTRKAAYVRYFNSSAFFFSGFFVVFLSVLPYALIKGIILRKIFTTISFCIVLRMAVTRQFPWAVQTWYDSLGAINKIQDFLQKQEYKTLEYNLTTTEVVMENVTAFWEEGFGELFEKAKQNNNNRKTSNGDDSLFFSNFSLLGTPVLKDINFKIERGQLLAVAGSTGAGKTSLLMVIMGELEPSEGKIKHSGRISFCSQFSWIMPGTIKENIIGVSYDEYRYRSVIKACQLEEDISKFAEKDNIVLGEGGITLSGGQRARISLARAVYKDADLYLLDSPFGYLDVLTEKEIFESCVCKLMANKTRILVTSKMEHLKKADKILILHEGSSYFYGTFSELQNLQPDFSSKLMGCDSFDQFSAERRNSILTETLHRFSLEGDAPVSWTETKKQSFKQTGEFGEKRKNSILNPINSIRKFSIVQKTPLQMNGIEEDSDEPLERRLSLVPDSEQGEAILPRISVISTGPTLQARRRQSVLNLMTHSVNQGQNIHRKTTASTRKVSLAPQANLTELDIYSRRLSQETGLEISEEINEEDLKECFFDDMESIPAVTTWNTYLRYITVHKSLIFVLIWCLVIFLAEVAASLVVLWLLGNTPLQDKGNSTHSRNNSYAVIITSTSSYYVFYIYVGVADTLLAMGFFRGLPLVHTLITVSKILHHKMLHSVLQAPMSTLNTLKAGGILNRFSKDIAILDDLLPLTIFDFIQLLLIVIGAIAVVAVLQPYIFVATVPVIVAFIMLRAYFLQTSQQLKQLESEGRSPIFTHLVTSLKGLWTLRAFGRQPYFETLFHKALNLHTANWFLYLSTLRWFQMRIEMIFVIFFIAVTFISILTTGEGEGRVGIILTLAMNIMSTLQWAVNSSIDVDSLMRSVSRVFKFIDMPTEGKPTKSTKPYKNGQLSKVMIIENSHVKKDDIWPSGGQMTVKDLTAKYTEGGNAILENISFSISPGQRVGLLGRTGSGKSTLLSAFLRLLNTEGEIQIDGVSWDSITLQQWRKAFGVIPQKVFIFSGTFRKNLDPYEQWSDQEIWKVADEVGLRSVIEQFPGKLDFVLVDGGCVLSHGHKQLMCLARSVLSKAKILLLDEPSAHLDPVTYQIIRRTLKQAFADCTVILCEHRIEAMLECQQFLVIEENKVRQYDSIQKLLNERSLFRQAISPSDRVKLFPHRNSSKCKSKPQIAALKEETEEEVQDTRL
Summary of the method: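 ΔF508-homozygous primary bronchial epithelial cells incubated 48 h at 36.5° C with compound (10 μM) in IL-13-containing medium, then TECC24 current-clamp recording in pH 7.4 Hepes saline with benzamil 10 μM, forskolin 10 μM, then CFTR inhibitor-172 20 μM. Equivalent Cl− current AUC between forskolin and inhibitor, expressed as fold over DMSO.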

Structure (SMILES)	DSLS 3D (100 μM ΔT) [1]	TECC (AUC, 10 μM) [2]
C[C@H](Cc1cccc([C@@]2(C)CCCC(C)(C)CS(=O)(=O)CCc3c(c(F)cc4[nH]ccc34)[S+]([O-])c3ccnc(c3)-c3nc2nn3C)c1)C(=O)O (stereo partly drawn) [Compound 231, (2R)-3-[3-[(6R)-22-Fluoro-3,6,10,10-tetramethyl-12,12,24-trioxo-12λ6,24λ4-dithia-3,4,19,28,30-pentazapentacyclo[23.3.1.12,5.015,23.016,20]triaconta-1(29),2(30),4,15,17,20,22,25,27-nonaen-6-yl]phenyl]-2-methyl-propanoic Acid]	C (a value greater than 10 °C and less than or equal to 25 °C is marked “C”)	C (a value between 20 and 80 is marked “C”)
C[C@@H](Cc1cccc([C@@]2(C)CCCC(C)(C)CS(=O)(=O)CCc3c(c(F)cc4[nH]ccc34)Cc3ccnc(c3)-c3nc2nn3C)c1)C(=O)O [Compound 233, (2S)-3-[3-[(6R)-22-Fluoro-3,6,10,10-tetramethyl-12,12-dioxo-12λ6-thia-3,4,19,28,30-pentazapentacyclo[23.3.1.12,5.015,23.016,20]triaconta-1(29),2(30),4,15,17,20,22,25,27-nonaen-6-yl]phenyl]-2-methyl-propanoic Acid]	C (a value greater than 10 °C and less than or equal to 25 °C is marked “C”)	B (a value between 12-20 is marked “B”)
C[C@H](Cc1cccc([C@@]2(C)CCCC(C)(C)CS(=O)(=O)CCc3c(c(F)cc4[nH]ccc34)Cc3ccnc(c3)-c3nc2nn3C)c1)C(=O)O [Compound 234, (2R)-3-[3-[(6R)-22-fluoro-3,6,10,10-tetramethyl-12,12-dioxo-12λ6-thia-3,4,19,28,30-pentazapentacyclo[23.3.1.12,5.015,23.016,20]triaconta-1(29),2(30),4,15,17,20,22,25,27-nonaen-6-yl]phenyl]-2-methyl-propanoic Acid]	C (a value greater than 10 °C and less than or equal to 25 °C is marked “C”)	B (a value between 12-20 is marked “B”)
Cn1nc2nc1-c1cc(ccn1)C(=O)c1c(F)cc3[nH]ccc3c1CCS(=O)(=O)CC(C)(C)CCC[C@]2(C)c1cccc(CCC(=O)O)c1 [Compound 238, 3-[3-[(6R)-22-fluoro-3,6,10,10-tetramethyl-12,12,24-trioxo-12λ6-thia-3,4,19,28,30-pentazapentacyclo[23.3.1.12,5.015,23.016,20]triaconta-1(29),2(30),4,15,17,20,22,25,27-nonaen-6-yl]phenyl]propanoic acid]	C (a value greater than 10 °C and less than or equal to 25 °C is marked “C”)	A (a TECC value less than 12 is marked “A”)
C[C@@H](Cc1cccc([C@@]2(C)CCCC(C)(C)CS(=O)(=O)CCc3c(c(F)cc4[nH]ccc34)Sc3ccc(F)c(c3)-c3nc2cs3)c1)C(=O)O [Compound 240, (2S)-3-[3-[(6R)-22,28-difluoro-6,10,10-trimethyl-12,12-dioxo-3,12λ6,24-trithia-19,30-diazapentacyclo[23.3.1.12,5.015,23.016,20]triaconta-1(29),2(30),4,15,17,20,22,25,27-nonaen-6-yl]phenyl]-2-methyl-propanoic Acid]	B (a value above 5 °C and less than or equal to 10 °C is marked “B”)	A (a TECC value less than 12 is marked “A”)
C[C@@H](Cc1cccc([C@@]2(C)CCCC(C)(C)CS(=O)(=O)CCc3c(c(F)cc4[nH]ccc34)Sc3ccc(F)c(c3)-c3nc2nn3C)c1)C(=O)O [Compound 242, (2S)-3-[3-[(6R)-22,28-difluoro-3,6,10,10-tetramethyl-12,12-dioxo-12λ6,24-dithia-3,4,19,30-tetrazapentacyclo[23.3.1.12,5.015,23.016,20]triaconta-1(29),2(30),4,15,17,20,22,25,27-nonaen-6-yl]phenyl]-2-methyl-propanoic Acid]	C (a value greater than 10 °C and less than or equal to 25 °C is marked “C”)	C (a value between 20 and 80 is marked “C”)
C[C@@H](Cc1cccc([C@@]2(C)CCCC(C)(C)CS(=O)(=O)CCc3c(c(F)cc4[nH]ccc34)Oc3cncc(c3)-c3nc2nn3C)c1)C(=O)O [Compound 244, (2S)-3-[3-[(6R)-22-fluoro-3,6,10,10-tetramethyl-12,12-dioxo-24-oxa-12λ6-thia-3,4,19,27,30-pentazapentacyclo[23.3.1.12,5.015,23.016,20]triaconta-1(29),2(30),4,15(23),16(20),17,21,25,27-nonaen-6-yl]phenyl]-2-methyl-propanoic Acid]	C (a value greater than 10 °C and less than or equal to 25 °C is marked “C”)	C (a value between 20 and 80 is marked “C”)
C[C@@H](Cc1cccc([C@@]2(C)CCCC(C)(C)CS(=O)(=O)CCc3c(c(F)c(F)c4[nH]ccc34)Oc3ccc(F)c(c3)-c3nc2nn3C)c1)C(=O)O [Compound 245, (2S)-2-methyl-3-[3-[(6R)-21,22,28-trifluoro-3,6,10,10-tetramethyl-12,12-dioxo-24-oxa-12λ6-thia-3,4,19,30-tetrazapentacyclo[23.3.1.12,5.015,23.016,20]triaconta-1(29),2(30),4,15,17,20,22,25,27-nonaen-6-yl]phenyl]propanoic Acid]	C (a value greater than 10 °C and less than or equal to 25 °C is marked “C”)	C (a value between 20 and 80 is marked “C”)
Cn1nc2nc1-c1cc(ccn1)C(=O)c1c(F)cc3[nH]ccc3c1CCS(=O)(=O)CC(C)(C)CCC[C@]2(C)c1cccc(CC(=O)O)c1 [Compound 247, 2-[3-[(6R)-22-fluoro-3,6,10,10-tetramethyl-12,12,24-trioxo-12λ6-thia-3,4,19,28,30-pentazapentacyclo[23.3.1.12,5.015,23.016,20]triaconta-1(29),2(30),4,15,17,20,22,25,27-nonaen-6-yl]phenyl]acetic Acid]	C (a value greater than 10 °C and less than or equal to 25 °C is marked “C”)	C (a value between 20 and 80 is marked “C”)
Cn1nc2nc1-c1cc(ccn1)Sc1c(F)cc3[nH]ccc3c1CCS(=O)(=O)CC(C)(C)CCC[C@]2(C)c1cccc(CC(=O)O)c1 [Compound 251, 2-[3-[(6R)-22-Fluoro-3,6,10,10-tetramethyl-12,12-dioxo-12λ6,24-dithia-3,4,19,28,30-pentazapentacyclo[23.3.1.12,5.015,23.016,20]triaconta-1(29),2(30),4,15,17,20,22,25,27-nonaen-6-yl]phenyl]acetic Acid]	C (a value greater than 10 °C and less than or equal to 25 °C is marked “C”)	B (a value between 12-20 is marked “B”)
Cn1nc2nc1-c1cncc(c1)Oc1c(F)cc3[nH]ccc3c1CCS(=O)(=O)CC(C)(C)CCC[C@]2(C)c1cccc(CCC(=O)O)c1 [Compound 252, 3-[3-[(6R)-22-Fluoro-3,6,10,10-tetramethyl-12,12-dioxo-24-oxa-12λ6-thia-3,4,19,27,30-pentazapentacyclo[23.3.1.12,5.015,23.016,20]triaconta-1(29),2(30),4,15(23),16(20),17,21,25,27-nonaen-6-yl]phenyl]propanoic Acid]	C (a value greater than 10 °C and less than or equal to 25 °C is marked “C”)	C (a value between 20 and 80 is marked “C”)
